Measured values published in ChEMBL document CHEMBL3853285, “Naturally Occurring Carbazole Alkaloids from Murraya koenigii as Potential Antidiabetic Agents” (J Nat Prod, 2016).
Activity calls are given as the source filed them. The calls are words filed in the database; no cut-off is given here.

Assays:
Rattus norvegicus [1] = experiment: Antidiabetic activity in overnight fasted STZ-induced albino Sprague-Dawley rat diabetic model assessed as decrease in blood glucose level at 100 mg/kg, po measured up to 24 hrs; format: functional
Rattus norvegicus [2] = experiment: Antidiabetic activity in overnight fasted STZ-induced albino Sprague-Dawley rat diabetic model assessed as decrease in blood glucose level at 100 mg/kg, po measured up to 5 hrs; format: functional
[3] = Activation of Akt-dependent signalling pathway in rat L6 myotubes assessed as increase in myc-tagged GLUT4-mediated 2-[3H]-deoxyglucose uptake incubated for 16 hrs measured for 5 mins by beta scintillation counting
[4] = Activation of Akt-dependent signalling pathway in rat L6 myotubes assessed as induction of myc-tagged GLUT4 translocation to cell surface at 10 uM incubated for 16 hrs by O-phenylenediamide based colorimetric assay relative to control
[5] = Activation of Akt-dependent signaling pathway in rat L6 myotubes assessed as increase in myc-tagged GLUT4-mediated 2-[3H]-deoxyglucose uptake at 10 uM incubated for 16 hrs measured for 5 mins by beta scintillation counting method relative to control
[6] = Activation of Akt-dependent signalling pathway in rat L6 myotubes assessed as increase in insulin-stimulated myc-tagged GLUT4-mediated 2-[3H]-deoxyglucose uptake at 25 uM incubated for 16 hrs followed by insulin stimulation for 20 mins measured for 5 mins by beta scintillation counting method relative to control
Mus musculus [7] = experiment: Antidiabetic activity in leptin receptor deficient db/db C57BL/KSJ mouse assessed as decrease in fasting blood glucose level administered for 15 consecutive days relative to control; format: functional
Mus musculus [8] = experiment: Reversal of insulin resistance in leptin receptor deficient db/db C57BL/KSJ mouse assessed as improvement in HOMA index administered for 15 consecutive days relative to control; format: functional
Mus musculus [9] = experiment: Antidiabetic activity in leptin receptor deficient db/db C57BL/KSJ mouse assessed as decrease in postprandial blood glucose level at 10 mg/kg, po for 15 consecutive days measured on day 7 to 14 post dose; format: functional, organism-based
Mus musculus [10] = experiment: Antidiabetic activity in overnight fasted leptin receptor deficient db/db C57BL/KSJ mouse assessed as reduction in postprandial blood glucose AUC at 10 mg/kg, po administered on day 15 post glucose challenge measured up to 120 mins by oral glucose tolerance test relative to control; format: functional
Mus musculus [11] = experiment: Reversal of insulin resistance in leptin receptor deficient db/db C57BL/KSJ mouse assessed as decrease in serum insulin level administered for 15 consecutive days relative to control; format: functional
Mus musculus [12] = experiment: Antidiabetic activity in overnight fasted leptin receptor deficient db/db C57BL/KSJ mouse assessed as reduction in postprandial blood glucose AUC at 10 mg/kg, po administered on day 10 post glucose challenge measured up to 120 mins by oral glucose tolerance test relative to control; format: functional
[13] = Half life in rat liver microsomes in presence of NADPH by HPLC analysis; format: ADME; conditions: for half-life: liver microsomes
[14] = Metabolic stability in rat liver microsomes assessed as parent compound remaining after 90 mins in presence of NADPH by HPLC analysis; format: ADME; conditions: for remaining at 1.5 h: liver microsomes, read-out: Stability
[15] = Activation of Akt-dependent signalling pathway in rat L6 myotubes assessed as increase in myc-tagged GLUT4-mediated 2-[3H]-deoxyglucose uptake at 25 uM incubated for 16 hrs measured for 5 mins by beta scintillation counting relative to control
[16] = Activation of Akt-dependent signalling pathway in rat L6 myotubes assessed as induction of myc-tagged GLUT4 translocation to cell surface at 25 uM incubated for 16 hrs by O-phenylenediamide based colorimetric assay relative to control
[17] = Metabolic stability in rat liver microsomes assessed as drug degradation rate constant incubated for 90 mins by HPLC analysis; format: ADME; conditions: 1.5 h
[18] = Cmax in Sprague-Dawley rat plasma at 100 mg/kg, po administered as single dose measured up to 48 hrs post dose by LC-MS/MS analysis; format: ADME, organism-based; design: dose 100 mg/kg, route oral
[19] = AUC (0 to infinity) in Sprague-Dawley rat plasma at 100 mg/kg, po administered as single dose measured up to 48 hrs post dose by LC-MS/MS analysis; format: ADME, organism-based; design: dose 100 mg/kg, route oral, time infinity
[20] = Tmax in Sprague-Dawley rat plasma at 100 mg/kg, po administered as single dose by LC-MS/MS analysis; format: ADME, organism-based
Mus musculus [21] = experiment: Antidiabetic activity in overnight fasted leptin receptor deficient db/db C57BL/KSJ mouse assessed as reduction in postprandial blood glucose AUC at 30 mg/kg, po administered on day 10 post glucose challenge measured up to 120 mins by oral glucose tolerance test relative to control; format: functional
Rattus norvegicus [22] = organism: Rattus norvegicus; experiment: Induction of Akt phosphorylation at Ser-473 residue in rat L6 myotubes over-expressing myc-tagged GLUT4 at 25 uM incubated for 16 hrs by Western blot analysis
Mus musculus [23] = experiment: Antidiabetic activity in leptin receptor deficient db/db C57BL/KSJ mouse assessed as decrease in postprandial blood glucose level at 30 mg/kg, po for 15 consecutive days measured on day 8 post dose; format: functional, organism-based
Mus musculus [24] = experiment: Antidiabetic activity in overnight fasted leptin receptor deficient db/db C57BL/KSJ mouse assessed as reduction in postprandial blood glucose AUC at 30 mg/kg, po administered on day 15 post glucose challenge measured up to 120 mins by oral glucose tolerance test relative to control; format: functional
Rattus norvegicus [25] = organism: Rattus norvegicus; experiment: Induction of Akt phosphorylation at Ser-473 residue in rat L6 myotubes over-expressing myc-tagged GLUT4 at 50 uM incubated for 16 hrs followed by insulin stimulation for 20 mins by Western blot analysis

Row | SMILES | Activity [3] | fold change (FC) [6] | fold change (FC) [15] | fold change (FC) [16] | K [17] | half-life [13] | remaining at 1.5 h [14] | inhibition in vivo at 100 mg/kg (Rattus norvegicus [1]) | inhibition in vivo at 100 mg/kg (Rattus norvegicus [2]) | other results
1 | CN(C)C(=N)NC(=N)N [METFORMIN] | – | – | – | – | – | – | – | 36% | 25.9% | –
2 | CN(CCOc1ccc(CC2SC(=O)NC2=O)cc1)c1ccccn1 (configuration not stated) | Dose-dependent effect | 2.75 | – | – | – | – | – | – | – | fold change (FC) [4]: 1.38; fold change (FC) [5]: 1.45
3 | CCc1ccc(CCOc2ccc(CC3SC(=O)NC3=O)cc2)nc1 (configuration not stated) [PIOGLITAZONE] | – | – | – | – | – | – | – | – | – | inhibition (INH) (Mus musculus [7]): 62.4%; Activity (Mus musculus [8]): 74.6%; inhibition (Mus musculus [9]): Active; inhibition in vivo at 10 mg/kg (Mus musculus [10]): 41.4%; inhibition (INH) (Mus musculus [11]): 32.3%; inhibition in vivo at 10 mg/kg (Mus musculus [12]): 30.2%
4 | CC(C)=CCC[C@]1(C)C=Cc2c(c(C)cc3c2[nH]c2ccccc23)O1 | Dose-dependent effect | 2.68 | 1.26 | 1.41 | 0.088 min⁻¹ | – | – | 23.3% | 19.3% | t1/2 ([13]; microsomes): 7.8 min; Stability ([14]; microsomes, 1.5 h): 61%

Further lines, with some results ahead:

Row | Activity [3] | fold change (FC) [6] | fold change (FC) [15] | fold change (FC) [16] | K [17] | half-life [13] | remaining at 1.5 h [14] | SMILES | inhibition in vivo at 100 mg/kg (Rattus norvegicus [1]) | inhibition in vivo at 100 mg/kg (Rattus norvegicus [2]) | other results
5 | Dose-dependent effect | 2.7 | 1.34 | 1.33 | 0.004 min⁻¹ | 2.83 h | 67% | COc1ccc2c(c1)[nH]c1c3c(c(C)cc12)OC(C)(C)C=C3 | 30.3% | 24.6% | –
6 | Dose-dependent effect | 2.41 | 1.42 | 1.29 | 0.003 min⁻¹ | 3.11 h | 79% | COc1cc2[nH]c3c4c(c(C)cc3c2cc1OC)OC(C)(C)C=C4 | 30% | 22.5% | inhibition (INH) (Mus musculus [7]): 40.5%; Cmax [18]: 2820 nM; AUC(0-inf) [19]: 23 µM·h; Tmax [20]: 4 h; Activity (Mus musculus [8]): 44.3%; inhibition in vivo at 30 mg/kg (Mus musculus [21]): 21.8%; Activity (Rattus norvegicus [22]): Active; inhibition (Mus musculus [23]): Active; inhibition in vivo at 30 mg/kg (Mus musculus [24]): 28.5%; inhibition (INH) (Mus musculus [11]): 17.2%; Activity (Rattus norvegicus [25]): Active
7 | Dose-dependent effect | 2.54 | 1.41 | 1.44 | 0.005 min⁻¹ | 2.21 h | 58% | COc1ccc2[nH]c3c4c(c(C)cc3c2c1)OC(C)(C)C=C4 [KOENIMBINE] | 19.8% | 15.5% | Cmax [18]: 1810 nM; AUC(0-inf) [19]: 9.45 µM·h; Tmax [20]: 0.83 h
